In PubChem BioAssay (NCI):
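The compound was tested at five concentrations on cells cultured in 96-well plates, with a 48-hour exposure period. The concentration for full growth arrest is given as TGI.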

What was measured:
Experiment in all cases: NCI tumour cell line growth inhibition, 48 h
[1] = system: EKVX NSCLC
[2] = system: NCI-H460 lung
[3] = system: HCT-15 colon
[4] = system: A549 NSCLC
[5] = system: HT29 colon
[6] = system: SK-MEL-5 melanoma
[7] = system: HOP-92 NSCLC
[8] = system: NCI-H226 lung

| SMILES | TGI [1] [µM] | TGI [2] [µM] | TGI [3] [µM] | TGI [4] [µM] | TGI [5] [µM] | TGI [6] [µM] | TGI [7] [µM] | TGI [8] [µM] |
| --- | --- | --- | --- | --- | --- | --- | --- | --- |
| CCOc1ccc(N=C2NC(=O)C(CC(=O)Nc3ccc(Cl)cc3Cl)S2)cc1 (stereo unspecified) | > 100 | > 100 | > 100 | > 100 | > 100 | > 100 | – | – |
| O=[N+]([O-])c1cccc(C=NC23CC4CC(CC(C4)C2)C3)c1 | > 100 | > 100 | > 100 | > 100 | > 100 | > 100 | > 100 | > 100 |
| CNC(=O)N(CCCC(NC(C)=O)C(=O)NCc1ccccc1)Cc1ccccc1 (stereo unspecified) | > 100 | > 100 | > 100 | > 100 | > 100 | > 100 | > 100 | > 100 |
| COC(=O)CCC(=O)C(CC(=O)OC)C(=O)CCC(=O)NCCc1ccccc1 (stereo unspecified) | > 100 | > 100 | > 100 | > 100 | > 100 | > 100 | > 100 | > 100 |
| c1ccc2c(CNCCCN3CCN(CCCNCc4cccc5ccccc45)CC3)cccc2c1 | 13.1 | 2.81 | 3.47 | 4.25 | 3.2 | 3.14 | 4.65 | 7.75 |
| Cc1ccc(NC(=O)CC2SC(=Nc3cccc(Cl)c3C)NC2=O)cc1 (stereo unspecified) | > 100 | > 100 | > 100 | > 100 | > 100 | 96.5 | – | – |
| N#CCC(=O)N/N=C(/C(=O)Nc1ccccc1)C1C(=O)N(c2ccccc2)N=C1N (stereo unspecified) | > 100 | > 100 | > 100 | > 100 | > 100 | > 100 | > 100 | > 100 |
| CN(CC(=O)O)S(=O)(=O)c1ccc(Cl)cc1 | > 100 | > 100 | > 100 | > 100 | > 100 | > 100 | > 100 | > 100 |
| Cc1ccc(S(=O)OC2c3ccccc3Cc3ccccc32)cc1 (stereo unspecified) | 34.5 | 46.2 | 44.5 | 87.2 | > 100 | 37.1 | 36.5 | 37.1 |
| CCOC(=O)c1sc(Nc2cc(Cl)ccc2Cl)nc1C | > 100 | > 100 | > 100 | > 100 | > 100 | – | 96.6 | > 100 |
| CC(=O)Nc1ccc(S(=O)(=O)N/N=C/c2cc(I)cc([N+](=O)[O-])c2O)cc1 | > 100 | > 100 | > 100 | > 100 | > 100 | > 100 | – | > 100 |
| O=C(Cc1c(C(=O)Nc2ccccc2)sc(C(=O)Nc2ccccc2)c1CC(=O)Nc1ccccc1)Nc1ccccc1 | > 100 | > 100 | – | > 100 | > 100 | > 100 | > 100 | > 100 |
| CCCCN(CCCC)C(=O)C(=O)C(C(=O)C(=O)OC)c1nc2ccccc2o1 (stereo unspecified) | – | > 100 | > 100 | > 100 | > 100 | > 100 | > 100 | > 100 |
| Cc1ccccc1C(C#N)/C(=N/NC(N)=S)C(=O)Nc1c(C)cccc1C (stereo unspecified) | > 100 | > 100 | – | > 100 | > 100 | > 100 | > 100 | > 100 |
| Cn1cnc([N+](=O)[O-])c1Sc1nccn1-c1ccccc1 | > 100 | > 100 | – | > 100 | > 100 | > 100 | 81.1 | > 100 |
| CC[C@H]1[C@@H](C)C=C[C@@H](C)N1S(=O)(=O)c1ccc(C)cc1 | > 100 | – | > 100 | > 100 | > 100 | > 100 | – | > 100 |
| S=c1sc2sc(=S)sc2s1 | – | 47.7 | > 100 | > 100 | 78.9 | > 100 | > 100 | – |
| Cc1cc2c(=O)cc(-c3ccc(C(=O)O)cc3)oc2c(C(N)=O)c1C | > 100 | > 100 | > 100 | > 100 | > 100 | > 100 | > 100 | – |
| CN1C(=O)CNS1(=O)=O | – | > 100 | > 100 | > 100 | > 100 | > 100 | > 100 | > 100 |
| Cc1cc2c(=O)cc(-c3ccc(Cl)c(Cl)c3)oc2c(C(=O)O)c1C | > 100 | > 100 | > 100 | > 100 | > 100 | > 100 | – | > 100 |
| CC1=CC=C2C(C)(C)CC[C@@H]3OC(=O)[C@H]1[C@]23C | > 100 | – | – | > 100 | > 100 | > 100 | > 100 | > 100 |
| O=C(O)COc1ccc2c3c1C(=O)CCC3CO2 (stereo unspecified) | > 100 | > 100 | > 100 | > 100 | > 100 | > 100 | > 100 | – |
| C=CCC1=C2CCCCC2CCC1=O (stereo unspecified) | > 100 | > 100 | > 100 | > 100 | – | > 100 | – | – |
